Test results published in US9273040B2 (Merck Sharp & Dohme Corp., priority 2011, dated 2016).

Columns and labels:
Type in all cases: cell-based
[1] = target: T1, human Nav1.7 channels stably expressed in HEK 293 cells (Homo sapiens, UniProt Q15858); experiment: IonWorks Quattro automated patch-clamp, sodium current, inactivated state block; conditions: read-out: potency for the Nav 1.7 sodium ion channel (as measured by IonWorks)
T1 construct: expressed in transfected cells
Procedure: (§1) Compounds were tested on human Nav1.7 and Nav1.5 channels stably expressed in HEK 293 cells. […] Cells were sealed on a planar substrate using the Population Patch Plate (PPC) technology. Electrical access was obtained using both nystatin and amphotericin. A double-pulse protocol was used for the determination of IC50 values for inactivated state block. Nav1.7 and Nav1.5 expressing cells were voltage clamped at −100 mV and −110 mV, respectively. A depolarizing prepulse to −10 mV (Nav1.7) or −30 mV (Nav1.5) for 1000 ms followed by a 10 ms repolarization to −100 mV (Nav1.7) or −110 mV (Nav1.5) was given to generate fractional channel inactivation of ˜50%, followed by a 10 ms test pulse to −10 mV (Nav1.7) or −30 mV (Nav1.5) to measure peak current in control conditions and after compound addition. The following recording solutions were used (mM). External: 150 NaCl, 2 CaCl2, 5 KCl, 1 Mg Cl2, 10 HEPES, 12 Dextrose; internal: 120 CsF, 30 CsCl, 10 EGTA, 5 HEPES, 5 NaF, 2 MgCl2.
(§2) For all electrophysiology experiments, offline analysis was used to correct for current rundown and to determine percent inhibition as a function of drug concentration. IC50 values were determined by fitting to the Hill equation.

[2] = target: T1, human Nav1.7 channels stably expressed in HEK 293 cells; experiment: PatchXpress 7000 automated patch-clamp, sodium current; conditions: 22° C., read-out: potency for the Nav 1.7 sodium ion channel (as measured by PatchXpress)
Method in brief: (§3)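 IC50 values came from Hill-equation fits of rundown-corrected inhibition. PatchXpress recordings at 22° C held cells 20 mV negative to V0.5 inact and applied 10 Hz trains of 30 ms steps to −20 mV (Nav1.7) or an 8000 ms prepulse 7 mV positive to V0.5 inact. […]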

[3] = target: T2, human Nav1.5 channels stably expressed in HEK 293 cells (Homo sapiens, UniProt Q14524); experiment: as above; conditions: selectivity over Nav1.5
T2 construct: expressed in transfected cells
Method in brief: as §3

[4] = target: T2, human Nav1.5 channels stably expressed in HEK 293 cells; experiment: IonWorks Quattro automated patch-clamp, sodium current, inactivated state block; conditions: selectivity over Nav1.5
Procedure: as §1, §2

T2 sequence (Q14524 whole entry): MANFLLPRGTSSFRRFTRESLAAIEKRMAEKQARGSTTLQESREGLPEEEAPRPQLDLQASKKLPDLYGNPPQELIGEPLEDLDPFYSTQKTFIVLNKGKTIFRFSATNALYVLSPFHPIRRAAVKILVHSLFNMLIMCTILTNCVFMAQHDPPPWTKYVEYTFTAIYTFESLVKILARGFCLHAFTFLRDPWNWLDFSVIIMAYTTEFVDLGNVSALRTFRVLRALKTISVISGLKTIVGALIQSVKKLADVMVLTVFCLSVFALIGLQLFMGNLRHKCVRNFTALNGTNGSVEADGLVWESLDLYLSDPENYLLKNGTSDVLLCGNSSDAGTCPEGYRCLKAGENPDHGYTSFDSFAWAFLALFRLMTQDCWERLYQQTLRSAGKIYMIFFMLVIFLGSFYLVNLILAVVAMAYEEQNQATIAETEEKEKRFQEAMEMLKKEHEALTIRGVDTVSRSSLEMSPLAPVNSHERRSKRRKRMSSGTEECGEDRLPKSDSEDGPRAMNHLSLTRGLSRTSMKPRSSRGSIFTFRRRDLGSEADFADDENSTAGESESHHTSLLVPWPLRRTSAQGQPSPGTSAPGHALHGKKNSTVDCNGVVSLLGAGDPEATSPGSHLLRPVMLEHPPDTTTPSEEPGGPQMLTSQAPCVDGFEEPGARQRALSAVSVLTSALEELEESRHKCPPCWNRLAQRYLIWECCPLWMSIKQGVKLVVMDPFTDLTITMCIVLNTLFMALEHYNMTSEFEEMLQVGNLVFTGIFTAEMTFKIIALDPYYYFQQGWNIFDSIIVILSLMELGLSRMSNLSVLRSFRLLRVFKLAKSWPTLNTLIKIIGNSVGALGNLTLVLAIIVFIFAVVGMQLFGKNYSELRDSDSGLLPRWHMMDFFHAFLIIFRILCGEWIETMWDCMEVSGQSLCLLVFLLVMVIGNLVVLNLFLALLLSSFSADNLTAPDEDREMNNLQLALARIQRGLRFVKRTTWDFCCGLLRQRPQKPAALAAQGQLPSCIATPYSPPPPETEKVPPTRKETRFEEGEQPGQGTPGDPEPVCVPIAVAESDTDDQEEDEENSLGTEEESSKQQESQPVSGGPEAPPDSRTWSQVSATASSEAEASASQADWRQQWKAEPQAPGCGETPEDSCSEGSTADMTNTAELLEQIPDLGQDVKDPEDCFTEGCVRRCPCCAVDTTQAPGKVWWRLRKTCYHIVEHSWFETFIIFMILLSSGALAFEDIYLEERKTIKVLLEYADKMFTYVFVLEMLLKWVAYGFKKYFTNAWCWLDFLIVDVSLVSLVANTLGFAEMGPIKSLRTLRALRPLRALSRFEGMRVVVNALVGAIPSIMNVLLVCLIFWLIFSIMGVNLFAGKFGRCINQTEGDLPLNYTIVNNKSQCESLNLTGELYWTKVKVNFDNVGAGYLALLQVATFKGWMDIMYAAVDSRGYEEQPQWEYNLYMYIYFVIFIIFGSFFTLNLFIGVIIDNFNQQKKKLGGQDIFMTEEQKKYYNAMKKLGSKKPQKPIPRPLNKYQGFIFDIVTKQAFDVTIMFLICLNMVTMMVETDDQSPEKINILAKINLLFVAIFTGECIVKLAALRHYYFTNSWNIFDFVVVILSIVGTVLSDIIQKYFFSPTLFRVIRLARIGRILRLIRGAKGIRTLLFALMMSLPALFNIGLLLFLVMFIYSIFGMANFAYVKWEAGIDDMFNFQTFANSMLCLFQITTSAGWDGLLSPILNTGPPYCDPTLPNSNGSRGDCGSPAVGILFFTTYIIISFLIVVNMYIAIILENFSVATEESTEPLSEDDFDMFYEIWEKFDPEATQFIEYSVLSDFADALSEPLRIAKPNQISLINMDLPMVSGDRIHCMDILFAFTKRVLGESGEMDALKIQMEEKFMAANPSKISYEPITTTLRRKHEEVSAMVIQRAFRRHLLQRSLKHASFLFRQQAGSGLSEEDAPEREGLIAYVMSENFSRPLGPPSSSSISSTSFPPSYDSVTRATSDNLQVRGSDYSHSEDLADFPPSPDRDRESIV
T1 sequence (Q15858 whole entry): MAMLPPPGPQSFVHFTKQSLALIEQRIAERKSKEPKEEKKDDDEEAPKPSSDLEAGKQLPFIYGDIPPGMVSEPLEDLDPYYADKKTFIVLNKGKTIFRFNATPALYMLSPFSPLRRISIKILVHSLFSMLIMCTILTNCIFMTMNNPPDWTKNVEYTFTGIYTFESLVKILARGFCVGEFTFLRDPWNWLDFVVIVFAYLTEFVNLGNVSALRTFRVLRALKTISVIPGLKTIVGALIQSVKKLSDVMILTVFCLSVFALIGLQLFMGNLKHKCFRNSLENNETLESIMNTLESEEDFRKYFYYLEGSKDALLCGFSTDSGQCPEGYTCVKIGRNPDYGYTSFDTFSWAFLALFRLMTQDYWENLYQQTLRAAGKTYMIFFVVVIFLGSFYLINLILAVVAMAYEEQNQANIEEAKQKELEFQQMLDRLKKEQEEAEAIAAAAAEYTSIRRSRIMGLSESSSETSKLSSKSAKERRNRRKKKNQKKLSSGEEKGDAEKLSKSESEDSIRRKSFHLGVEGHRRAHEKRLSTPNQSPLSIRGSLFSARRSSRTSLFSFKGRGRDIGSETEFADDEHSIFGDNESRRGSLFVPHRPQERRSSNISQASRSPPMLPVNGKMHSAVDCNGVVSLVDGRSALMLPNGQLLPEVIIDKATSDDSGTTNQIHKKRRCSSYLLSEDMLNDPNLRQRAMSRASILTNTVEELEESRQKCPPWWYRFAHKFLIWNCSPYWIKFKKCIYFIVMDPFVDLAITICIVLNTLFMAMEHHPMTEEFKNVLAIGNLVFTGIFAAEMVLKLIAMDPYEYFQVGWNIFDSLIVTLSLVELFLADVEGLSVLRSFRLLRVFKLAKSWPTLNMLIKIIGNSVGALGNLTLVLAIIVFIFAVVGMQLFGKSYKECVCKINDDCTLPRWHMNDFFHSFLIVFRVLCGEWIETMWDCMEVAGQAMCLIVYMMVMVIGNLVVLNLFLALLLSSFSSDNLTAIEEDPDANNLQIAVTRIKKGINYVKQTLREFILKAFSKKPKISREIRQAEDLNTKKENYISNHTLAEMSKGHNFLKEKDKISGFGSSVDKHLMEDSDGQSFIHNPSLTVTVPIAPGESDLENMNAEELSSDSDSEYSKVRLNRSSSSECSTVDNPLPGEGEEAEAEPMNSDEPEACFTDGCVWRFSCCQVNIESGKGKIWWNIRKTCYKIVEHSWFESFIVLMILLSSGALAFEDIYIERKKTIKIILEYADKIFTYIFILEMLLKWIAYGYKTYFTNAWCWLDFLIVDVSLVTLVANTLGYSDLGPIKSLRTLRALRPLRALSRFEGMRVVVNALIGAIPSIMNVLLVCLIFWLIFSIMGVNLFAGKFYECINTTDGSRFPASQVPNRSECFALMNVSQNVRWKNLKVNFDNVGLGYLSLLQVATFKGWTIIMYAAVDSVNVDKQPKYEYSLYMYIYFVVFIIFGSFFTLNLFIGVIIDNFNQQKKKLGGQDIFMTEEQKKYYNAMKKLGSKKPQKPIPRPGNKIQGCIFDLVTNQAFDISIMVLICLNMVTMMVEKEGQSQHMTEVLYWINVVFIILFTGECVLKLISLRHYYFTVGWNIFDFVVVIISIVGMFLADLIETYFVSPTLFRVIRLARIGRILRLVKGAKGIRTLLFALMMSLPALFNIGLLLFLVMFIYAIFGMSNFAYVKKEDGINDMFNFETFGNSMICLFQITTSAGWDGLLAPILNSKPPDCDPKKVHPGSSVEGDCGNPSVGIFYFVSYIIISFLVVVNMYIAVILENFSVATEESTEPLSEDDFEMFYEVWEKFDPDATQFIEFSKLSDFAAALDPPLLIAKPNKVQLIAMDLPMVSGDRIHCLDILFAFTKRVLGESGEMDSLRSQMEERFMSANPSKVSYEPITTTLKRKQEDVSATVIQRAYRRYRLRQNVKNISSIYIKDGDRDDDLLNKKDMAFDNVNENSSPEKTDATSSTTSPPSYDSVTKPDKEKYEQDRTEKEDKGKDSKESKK

Row | Compound | IC50 [1] | IC50 [2] | ratio of Nav 1.5:Nav 1.7 potency, determined by PatchXpress measurement [3] | ratio of Nav 1.5:Nav 1.7 potency, determined by IonWorks measurement [4]
1 | O=c1oc2cc(S(=O)(=O)Nc3ncns3)ccc2n1Cc1ccccc1-c1ccnc(CN2CCCCC2)c1 [Compound 3-10, 2-oxo-3-{2-[2-(piperidin-1-ylmethyl)pyridin-4-yl]benzyl}-N-1,2,4-thiadiazol-5-yl-2,3-dihydro-1,3-benzoxazole-6-sulfonamide] | 1740 nM |  |  | 
2 | CC(c1cccc2c1CNCC2)n1c(=O)oc2cc(S(=O)(=O)Nc3ncns3)ccc21 (stereo not shown) [Compound 4-14, 2-oxo-3-[1-(1,2,3,4-tetrahydroisoquinolin-8-yl)ethyl]-N-1,2,4-thiadiazol-5-yl-2,3-dihydro-1,3-benzoxazole-6-sulfonamide] | 25 nM | 61 nM | > 495 | > 1338
3 | NCc1ccc(Cl)cc1Cn1c(=O)oc2cc(S(=O)(=O)Nc3ncns3)ccc21 [Compound 1-15, 3-[2-(aminomethyl)-5-chlorobenzyl]-2-oxo-N-1,2,4-thiadiazol-5-yl-2,3-dihydro-1,3-benzoxazole-6-sulfonamide] | 605 nM |  |  | > 55
4 | O=c1oc2cc(S(=O)(=O)Nc3ncns3)ccc2n1Cc1cccc(-c2ccc3c(c2)CNCC3)c1 [Compound 3-12, 2-oxo-3-[3-(1,2,3,4-tetrahydroisoquinolin-7-yl)benzyl]-N-1,2,4-thiadiazol-5-yl-2,3-dihydro-1,3-benzoxazole-6-sulfonamide] | 287 nM | 545 nM | 55 | 
5 | O=c1oc2cc(S(=O)(=O)Nc3ncns3)ccc2n1Cc1cccc(C2=CCCNC2)c1 [Compound 3-15, 2-oxo-3-[3-(1,2,5,6-tetrahydropyridin-3-yl)benzyl]-N-1,2,4-thiadiazol-5-yl-2,3-dihydro-1,3-benzoxazole-6-sulfonamide] | 646 nM |  |  | 
6 | O=c1oc2cc(S(=O)(=O)Nc3ncns3)ccc2n1Cc1cccc2c1CCNC2 [Compound 1-16, 2-oxo-3-(1,2,3,4-tetrahydroisoquinolin-5-ylmethyl)-N-1,2,4-thiadiazol-5-yl-2,3-dihydro-1,3-benzoxazole-6-sulfonamide] | 1690 nM | 3210 nM | > 9 | 
7 | O=c1oc2cc(S(=O)(=O)Nc3ncns3)ccc2n1Cc1cccc(C2=CCNCCC2)c1 [Compound 3-17, 2-oxo-3-[3-(2,5,6,7-tetrahydro-1H-azepin-4-yl)benzyl]-N-1,2,4-thiadiazol-5-yl-2,3-dihydro-1,3-benzoxazole-6-sulfonamide] | 827 nM |  |  | > 40
8 | O=c1oc2cc(S(=O)(=O)Nc3ncns3)ccc2n1Cc1cccc(C2=CC3CCC(C2)N3)c1 (stereo not shown) [Compound 3-18, 3-[3-(8-azabicyclo[3.2.1]oct-2-en-3-yl)benzyl]-2-oxo-N-1,2,4-thiadiazol-5-yl-2,3-dihydro-1,3-benzoxazole-6-sulfonamide] | 1330 nM |  |  | 
9 | CCCN1CCc2cccc(Cn3c(=O)oc4cc(S(=O)(=O)Nc5ncns5)ccc43)c2C1 [Compound 6-3, 2-oxo-3-[(2-propyl-1,2,3,4-tetrahydroisoquinolin-8-yl)methyl]-N-1,2,4-thiadiazol-5-yl-2,3-dihydro-1,3-benzoxazole-6-sulfonamide] | 642 nM |  |  | 
10 | C=CCC(c1ccccc1)n1c(=O)oc2cc(S(=O)(=O)Nc3ncns3)ccc21 (stereo not shown) [Compound 4-13, 2-oxo-3-(1-phenylbut-3-en-1-yl)-N-1,2,4-thiadiazol-5-yl-2,3-dihydro-1,3-benzoxazole-6-sulfonamide] | 272 nM | 88 nM | 177 | 
11 | O=c1oc2cc(S(=O)(=O)Nc3ncns3)ccc2n1Cc1ccccc1C1=CCCNC1 [Compound 3-6, 2-oxo-3-[2-(1,2,5,6-tetrahydropyridin-3-yl)benzyl]-N-1,2,4-thiadiazol-5-yl-2,3-dihydro-1,3-benzoxazole-6-sulfonamide] | 287 nM | 329 nM | > 91 | 
12 | O=c1oc2cc(S(=O)(=O)Nc3ncns3)ccc2n1Cc1ccccc1-c1ccccc1N1CCNCC1 [Compound 3-9, 2-oxo-3-[(2′-piperazin-1-ylbiphenyl-2-yl)methyl]-N-1,2,4-thiadiazol-5-yl-2,3-dihydro-1,3-benzoxazole-6-sulfonamide] | 563 nM |  |  | > 59
13 | O=c1oc2cc(S(=O)(=O)Nc3ncns3)ccc2n1Cc1cccc(C2=CCNCC2)c1 [Compound 3-16, 2-oxo-3-[3-(1,2,3,6-tetrahydropyridin-4-yl)benzyl]-N-1,2,4-thiadiazol-5-yl-2,3-dihydro-1,3-benzoxazole-6-sulfonamide] | 759 nM |  |  | > 43
14 | CC(c1ccccn1)n1c(=O)oc2cc(S(=O)(=O)Nc3ncns3)c(F)cc21 (stereo not shown) [Compound 13-6, 5-fluoro-2-oxo-3-(1-pyridin-2-ylethyl)-N-1,2,4-thiadiazol-5-yl-2,3-dihydro-1,3-benzoxazole-6-sulfonamide] | 65 nM |  |  | > 511
15 | O=c1oc2cc(S(=O)(=O)Nc3ncns3)ccc2n1Cc1cccc(-c2cccc3c2CNCC3)c1 [Compound 3-13, 2-oxo-3-[3-(1,2,3,4-tetrahydroisoquinolin-8-yl)benzyl]-N-1,2,4-thiadiazol-5-yl-2,3-dihydro-1,3-benzoxazole-6-sulfonamide] | 395 nM |  |  | > 83
16 | O=c1oc2cc(S(=O)(=O)Nc3ncns3)ccc2n1Cc1cccc(-c2cccc3c2CCNC3)c1 [Compound 3-14, 2-oxo-3-[3-(1,2,3,4-tetrahydroisoquinolin-5-yl)benzyl]-N-1,2,4-thiadiazol-5-yl-2,3-dihydro-1,3-benzoxazole-6-sulfonamide] | 430 nM |  |  | 35
17 | O=c1oc2cc(S(=O)(=O)Nc3ncns3)ccc2n1C(c1ccccc1)C1CC1 (stereo not shown) [Compound 4-12, 3-[cyclopropyl(phenyl)methyl]-2-oxo-N-1,2,4-thiadiazol-5-yl-2,3-dihydro-1,3-benzoxazole-6-sulfonamide] | 1040 nM |  |  | > 32
18 | O=c1oc2cc(S(=O)(=O)Nc3ncns3)ccc2n1C(c1ccccc1)c1ncco1 (stereo not shown) [Compound 4-10, 3-[1,3-oxazol-2-yl(phenyl)methyl]-2-oxo-N-1,2,4-thiadiazol-5-yl-2,3-dihydro-1,3-benzoxazole-6-sulfonamide] | 1330 nM | 643 nM | > 47 | 
19 | O=c1oc2cc(S(=O)(=O)Nc3ncns3)ccc2n1Cc1cccc2ccncc12 [Compound 1-17, 3-(isoquinolin-8-ylmethyl)-2-oxo-N-1,2,4-thiadiazol-5-yl-2,3-dihydro-1,3-benzoxazole-6-sulfonamide] | 216 nM |  |  | 65
20 | C[C@@H](c1ccccc1)n1c(=O)oc2cc(S(=O)(=O)Nc3ncns3)ccc21 [Compound 4-8, 2-oxo-3-[(1S)-1-phenylethyl]-N-1,2,4-thiadiazol-5-yl-2,3-dihydro-1,3-benzoxazole-6-sulfonamide] | 1480 nM |  |  | > 22
